Measurements as given in patent publication US9198906B2, “Ketoconazole enantiomer in humans” (Cortendo AB (publ), priority 2006, dated 2015).

Columns and labels:
[1] = tested on: patients with type 2 diabetes mellitus; experiment: Phase 2a trial, HbA1c (glycemic control); type: in vivo, human
Protocol: (§1) Five (5) dose groups were studied.
(§2) The first dose of the study drug was given on Day 1 at 2200 h. Activity markers measured on Day 1 prior to administration of the drug (“Visit 1”). The last dose of study drug was given on Day 14 at 2200 h and activity markers measured on Day 15 (“Visit 3”). Measurements of safety markers were taken on Visits 1 and 3, as well as Visit 2 (Day 8) and Visit 4 (Day 28).
This test measure levels of glycated hemoglobin and reflects the average blood glucose level for a subject over the preceding 3 months (approximately). Elevated levels are common in diabetics. Lowering the hemoglobin A1c number can delay or prevent the development of serious eye, kidney, and nerve disease in individuals with diabetes.

[2] = tested on: patients with type 2 diabetes mellitus; experiment: Phase 2a trial, fructosamine (glycemic control); type: in vivo, human
Protocol: as §1, §2
Fructosamine levels were measured at baseline and after two weeks of therapy (see Table 4 and FIGS. 1 and 2). […] Fructosamine levels reflect blood glucose levels over the preceding 2-3 weeks.

[3] = tested on: patients with type 2 diabetes mellitus; experiment: Phase 2a trial, total cholesterol; type: in vivo, human
Protocol: as §1, §2

[4] = tested on: patients with type 2 diabetes mellitus; experiment: Phase 2a trial, LDL cholesterol; type: in vivo, human
Protocol: as §1, §2

[5] = tested on: patients with type 2 diabetes mellitus; experiment: Phase 2a trial, continuous blood pressure monitoring; type: in vivo, human; conditions: Visits 1 and 3, 14 daily doses
Protocol: as §1
Continuous blood pressure monitoring was performed during Visits 1 and 3.

[6] = tested on: patients with type 2 diabetes mellitus; experiment: Phase 2a trial, C-reactive protein (marker of inflammation); type: in vivo, human
Protocol: as §1, §2

[7] = tested on: patients with type 2 diabetes mellitus; experiment: Phase 2a trial, liver function tests (AST/ALT/AP); conditions: Subject 04-016, KTZ 400 mg
Protocol: as §2

healthy volunteers = conditions: published reports, e.g. Morganroth et al. 1997; cited from earlier work
[8] = plasma; Beagle dogs, racemic ketoconazole 30 mg/dog intravenous bolus
Protocol: The pharmacokinetics of each of the ketoconazole enantiomers was studied following intravenous administration of racemic ketoconazole. Racemic ketoconazolewas dissolved in ethanol to 60 mg/ml. Each of three Beagle dogs was administered 0.5 ml bolus (30 mg/dog) intravenously.
Blood was collected from each dog prior to dosing (“0 min”) and at 2, 5, 10, 15, 30 min, and 1, 2, 4, 6, 8, and 24 hrs post-dosing. At each timepoint, blood (0.3 mL/sample) was collected and placed into labeled Microtainer® tubes with heparin as the anti-coagulant. The heparinized blood was centrifuged, and the supernatant pipetted off into another set of labeled Eppendorf® tubes. The derived plasma samples were analyzed for each of the two ketoconazole enantiomers (2S,4R and 2R,4S) and pharmacokinetic parameters determined for each of the enantiomers.

[9] = 400 mg po QD, 14 daily doses, Visit 3 (Day 15)
[10] = 400 mg po QD group, Visit 1 (baseline, before first dose)

Question: What does the source list for `CC(=O)N1CCN(c2ccc(OCC3COC(Cn4ccnc4)(c4ccc(Cl)cc4Cl)O3)cc2)CC1` (racemic) [KTZ, 1-acetyl-4-[4-[[2-(2,4-dichlorophenyl)-2-[(1H-imidazol-1-yl)-methyl]-1,3-dioxolan-4-yl]methoxy]phenyl]piperazine, reference compound]?
Answer: Visit 1 HbA1c mean ([1]; 400 mg po QD group, Visit 1 (Day 1, before first dose, baseline)): 8.05%; HbA1c Change vs Baseline mean ([1]; 400 mg po QD, 14 daily doses): −0.37%; Visit 3 HbA1c mean [1, 9]: 7.68%; Fructosamine Visit 1 mean [2, 10]: 272.57 µmol/L; Fructosamine Change vs Baseline mean ([2]; 400 mg po QD, 14 daily doses): -2.29 µmol/L; Fructosamine Visit 3 mean [2, 9]: 270.29 µmol/L; Total cholesterol Visit 1 mean [3, 10]: 198.14 mg/dL; Total cholesterol Change mean ([3]; 400 mg po QD, 14 daily doses): -33.57 mg/dL; Total cholesterol Mean % change ([3]; 400 mg po QD, 14 daily doses): −15.46%; Total cholesterol Visit 3 mean [3, 9]: 164.57 mg/dL; LDL cholesterol Visit 1 mean [4, 10]: 118.71 mg/dL; LDL cholesterol Mean % change ([4]; 400 mg po QD, 14 daily doses): −24.73%; LDL cholesterol change mean ([4]; 400 mg po QD, 14 daily doses): -30.43 mg/dL; LDL cholesterol Visit 3 mean [4, 9]: 88.29 mg/dL; effect on blood pressure readings [5]: no reductions; C-Reactive Protein (CRP) Visit 1 mean [6, 10]: 2.28 mg/L; CRP Mean % change vs baseline ([6]; 400 mg po QD, 14 daily doses): 9.78%; C-Reactive Protein (CRP) Visit 3 mean [6, 9]: 2.22 mg/L; effect on CRP ([6]; 14 daily doses): did not reduce CRP levels and actually led to an increase in CRP; ALT ([7]; Screening Visit): 28 u/L; AP ([7]; Screening Visit): 110 u/L; AST ([7]; Screening Visit): 33 u/L; ALT ([7]; Visit 1 (pre-1st dose)): 37 u/L; AP ([7]; Visit 1 (pre-1st dose)): 109 u/L; AST ([7]; Visit 1 (pre-1st dose)): 53 u/L; ALT ([7]; Visit 2): 19 u/L; AP ([7]; Visit 2): 137 u/L; AST ([7]; Visit 2): 36 u/L; ALT ([7]; Visit 3 (last dose)): 18 u/L; AP ([7]; Visit 3 (last dose)): 103 u/L; AST ([7]; Visit 3 (last dose)): 31 u/L; effect on QTc interval (healthy volunteers): does not increase

Question: Which clearance [8] does the source give for `CC(=O)N1CCN(c2ccc(OC[C@H]3CO[C@](Cn4ccnc4)(c4ccc(Cl)cc4Cl)O3)cc2)CC1` (single isomer, unassigned) [2R,4S ketoconazole enantiomer, reference compound] here?
Answer: 1.442 L/h/kg

Question: And the terminal half life [8]?
Answer: 55.8 min
